According to patent publication US12338219B2, “Antimalarial agents” (Merck Sharp & Dohme LLC, priority 2019, dated 2025):

Test system: parasites (ring stage parasites, parasite growth)
Test: Parasite LDH growth assay (Parasite Assay), antiparasite potency
Format: cell-based
Conditions: 72 h, 72 hours growth, LDH readout; Table 3
Summary of the method: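 Ring-stage culture was adjusted to 0.7% parasitemia and 2% haematocrit in bicarbonate-buffered RPMI-Hepes with heat-inactivated human serum and 0.5% albumax, then added to compound. Plates were incubated 72 h at 37 °C in gassed humidified boxes, frozen at −80 °C overnight and thawed, and growth was read by LDH assay.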

Compound | EC50
CC1(C)CC(=O)N([C@H](c2cncc(Cl)c2)[C@@H]2C[C@H]2C(=O)N[C@H]2CC(C)(C)Oc3ccccc32)C(=N)N1 [Example 58B] | 1 nM
CC1(C)CC(=O)N([C@H](c2ccc(C#N)cc2)[C@@H]2C[C@H]2C(=O)N[C@H]2CC(C)(C)Oc3ccccc32)C(=N)N1 [Example 45A] | 2.8 nM
CCC1(CC)CC(=O)N([C@H](c2cccnc2)[C@H]2[C@H](C(=O)N[C@H]3CC(C)(C)Oc4ccccc43)C2(C)C)C(=N)N1 [Example 48A] | 2.7 nM
COCC[C@H]([C@@H]1C[C@H]1C(=O)N[C@@H]1CC(C)(C)Oc2cccc(F)c21)N1C(=N)NC(C)(C)CC1=O [Example 88B] | 10 nM
CC1(C)CC(=O)N([C@H](c2cccc(C#N)c2)[C@@H]2C[C@H]2C(=O)N[C@@H]2c3ccccc3OC(C)(C)[C@H]2O)C(=N)N1 [Example 51] | 5.3 nM
COCC[C@H]([C@@H]1C[C@H]1C(=O)N[C@H]1CC(C)(C)Oc2cc(C)c(Cl)cc21)N1C(=N)NC(C)(C)CC1=O [Example 137B] | 6.4 nM
CCC1(C)C[C@H](NC(=O)[C@@H]2C[C@H]2CN2C(=N)NC(C)(C)CC2=O)c2ccccc2O1 (stereo partly shown) [Example 78] | 300 nM
COCC[C@H]([C@@H]1C[C@H]1C(=O)N[C@@H]1CC(C)(C)Oc2cccc(OC(F)(F)F)c21)N1C(=N)NC(C)(C)CC1=O [Example 107B] | 11 nM
CC[C@]1(C)CC(=O)N([C@@H](CCOC)[C@@H]2C[C@H]2C(=O)N[C@H]2C[C@H](C(F)(F)F)Oc3ccccc32)C(=N)N1 [Example 62A] | 31 nM
COc1cncc([C@H]([C@@H]2C[C@H]2C(=O)N[C@H]2C[C@H](C(F)(F)F)Oc3ccccc32)N2C(=N)NC(C)(C)CC2=O)c1 [Example 41] | 1.1 nM
COCC[C@H]([C@@H]1C[C@H]1C(=O)N[C@H]1CC(C)(C)Oc2cccc(Cl)c21)N1C(=N)NC(C)(C)CC1=O [Example 116A] | 0.8 nM
CC1(C)CC(=O)N([C@H](c2cccnc2)[C@@H]2C[C@H]2C(=O)N[C@@H]2CC(C)(C)Oc3cc(Cl)ccc32)C(=N)N1 [Example 91B] | 2.7 nM
CC(C)C1(C)CC(NC(=O)[C@@H]2C[C@H]2CN2C(=N)NC(C)(C)CC2=O)c2ccccc2O1 (stereo partly shown) [Example 79A] | 255 nM
CC1(C)CC(=O)N(C(c2cccc(C#N)c2)[C@@H]2C[C@H]2C(=O)NC2CC(C)(C)Oc3ccc(F)cc32)C(=N)N1 (stereo partly shown) [Example 53A] | 3.1 nM
CCC1(CC)CC(=O)N([C@H](CCOC)[C@@H]2C[C@H]2C(=O)N[C@H]2CC(C)(C)Oc3ccccc32)C(=N)N1 [Example 1A] | 1 nM

Same assay, conditions: 72 h, 72 hours growth, LDH readout; Table 4 (unit inferred)

Compound | EC50
CCC1(CC)CC(=O)N([C@H](CCOC)[C@@H]2C[C@H]2C(=O)N[C@@H]2CC(C)(C)Oc3ccccc32)C(=N)N1 [Example 141] | 4.7 nM

Same assay, conditions: 72 hours growth, LDH readout; Table 3

Compound | EC50
CC1(C)CC(=O)N(C(c2cccc(C#N)c2)[C@@H]2C[C@H]2C(=O)NC2CC(C)(C)Oc3ccc(F)cc32)C(=N)N1 (stereo partly shown) [Example 53B] | 2.1 nM
COCC[C@H]([C@@H]1C[C@H]1C(=O)N[C@H]1C[C@H](C(F)(F)F)Oc2ccccc21)N1C(=N)N[C@](C)(C(C)C)CC1=O [Example 21B] | 1 nM
CC[C@]1(C)CC(=O)N(C(c2cncc(F)c2)[C@@H]2C[C@H]2C(=O)NC2c3ccccc3OC(C(F)(F)F)C2O)C(=N)N1 (single isomer, unassigned) [Example 104A] | 4 nM
COCC[C@H]([C@@H]1C[C@H]1C(=O)NC1CC(C)(C)Oc2c(F)cccc21)N1C(=N)NC(C)(C)CC1=O (stereo partly shown) [Example 111B] | 15 nM
CCC1(CC)CC(=O)N(C[C@@H]2C(C)[C@H]2C(=O)N[C@@H]2c3ccccc3OC(C)(C)[C@H]2O)C(=N)N1 (single isomer, unassigned) [Example 30A] | 45 nM
COCC[C@H]([C@@H]1C[C@H]1C(=O)N[C@@H]1C[C@@H](C(F)(F)F)Oc2ccccc21)N1C(=N)NC(C)(C)CC1=O [Example 24A] | 3.4 nM
CCC1(CC)CC(=O)N(CC2C(C(=O)N[C@H]3C[C@H](C(F)(F)F)Oc4ccccc43)C2(F)F)C(=N)N1 (single isomer, unassigned) [Example 17B] | 20 nM
COCC[C@H]([C@@H]1C[C@H]1C(=O)NC1CC(C)(C(C)C)Oc2ccccc21)N1C(=N)NC(C)(C)CC1=O (single isomer, unassigned) [Example 80A] | 9.4 nM
CCC1(C)CC(NC(=O)[C@@H]2C[C@H]2[C@@H](CCOC)N2C(=N)NC(C)(C)CC2=O)c2ccccc2O1 (single isomer, unassigned) [Example 75D] | 7 nM
COCC[C@H]([C@@H]1C[C@H]1C(=O)NC1CC(C)(COC)Oc2ccccc21)N1C(=N)NC(C)(C)CC1=O (single isomer, unassigned) [Example 82C] | 53 nM
COCC[C@H]([C@@H]1C[C@H]1C(=O)NC1CC(C)(COC)Oc2ccccc21)N1C(=N)NC(C)(C)CC1=O (single isomer, unassigned) [Example 82A] | 24.4 nM
CC(C)C1(C)CC(NC(=O)[C@@H]2C[C@H]2[C@@H](c2cccnc2)N2C(=N)NC(C)(C)CC2=O)c2ccccc2O1 (single isomer, unassigned) [Example 81C] | 0.9 nM
COCC[C@H]([C@@H]1C[C@H]1C(=O)NC1CC(C)(C)Oc2c(Cl)cc(Cl)cc21)N1C(=N)NC(C)(C)CC1=O (stereo partly shown) [Example 106B] | 10 nM
CC(C)C1(C)CC(NC(=O)[C@@H]2C[C@H]2[C@@H](c2cccnc2)N2C(=N)NC(C)(C)CC2=O)c2ccccc2O1 (single isomer, unassigned) [Example 81D] | 1.3 nM

Same assay, conditions: 72 hours growth, LDH readout; Table 4 (unit inferred)

Compound | EC50
CCC1(CC)CC(=O)N(C(CC(C)OC)[C@@H]2C[C@H]2C(=O)N[C@@H]2CC(C)(C)Oc3ccccc32)C(=N)N1 (single isomer, unassigned) [Example 143B] | 2.4 nM
